In PubChem BioAssay AID2060893 (Molecular Pharmacology Branch, DTP, NCI, 2025):

System: K86415-001-R-J1-PDC complex spheroids, viability
Experiment: Anticancer human tumor K86415-001-R-J1-PDC patient-derived lung adenocarcinoma cell line growth inhibition [RAS]
Details: for IC50: curve of first compound; for viability, T/C: stronger effect = lower value
Outline: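 Multi-cell-type spheroids: tumor cells plus HUVEC endothelial cells and mesenchymal stem cells. RAS-pathway inhibitors were combined with targeted agents, each dosed in half-log steps down from clinical Cmax, or from 10 microM when Cmax was unknown.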

[1] = second compound 0.000949 µM, first compound 0.00316 µM
[2] = second compound 0.000949 µM, first compound 0.01 µM
[3] = second compound 0.000949 µM, first compound 0.0316 µM
[4] = second compound 0.000949 µM, first compound 0.1 µM
[5] = second compound 0.000949 µM, first compound 0.316 µM
[6] = second compound 0.000949 µM, first compound 1 µM
[7] = second compound 0.003 µM, first compound 0.00316 µM
[8] = second compound 0.003 µM, first compound 0.01 µM
[9] = second compound 0.003 µM, first compound 0.0316 µM
[10] = second compound 0.003 µM, first compound 0.1 µM
[11] = second compound 0.003 µM, first compound 0.316 µM
[12] = second compound 0.003 µM, first compound 1 µM
[13] = second compound 0.00949 µM, first compound 0.00316 µM
[14] = second compound 0.00949 µM, first compound 0.01 µM
[15] = second compound 0.00949 µM, first compound 0.0316 µM
[16] = second compound 0.00949 µM, first compound 0.1 µM
[17] = second compound 0.00949 µM, first compound 0.316 µM
[18] = second compound 0.00949 µM, first compound 1 µM
[19] = second compound 0.03 µM, first compound 0.00316 µM
[20] = second compound 0.03 µM, first compound 0.01 µM
[21] = second compound 0.03 µM, first compound 0.0316 µM
[22] = second compound 0.03 µM, first compound 0.1 µM
[23] = second compound 0.03 µM, first compound 0.316 µM
[24] = second compound 0.03 µM, first compound 1 µM
[25] = second compound 0.0949 µM, first compound 0.00316 µM
[26] = second compound 0.0949 µM, first compound 0.01 µM
[27] = second compound 0.0949 µM, first compound 0.0316 µM
[28] = second compound 0.0949 µM, first compound 0.1 µM
[29] = second compound 0.0949 µM, first compound 0.316 µM
[30] = second compound 0.0949 µM, first compound 1 µM
[31] = second compound 0.3 µM, first compound 0.00316 µM
[32] = second compound 0.3 µM, first compound 0.01 µM
[33] = second compound 0.3 µM, first compound 0.0316 µM
[34] = second compound 0.3 µM, first compound 0.1 µM
[35] = second compound 0.3 µM, first compound 0.316 µM
[36] = second compound 0.3 µM, first compound 1 µM
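Note: spheroids exposed to agents for seven days before readout.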

`O=C(c1ccc(F)c(F)c1Nc1ccc(I)cc1F)N1CC(O)([C@@H]2CCCCN2)C1` + CCn1c(-c2cc(N3CCN(C)CC3)cnc2C(C)OC)c2c3cc(ccc31)-c1csc(n1)CC(NC(=O)C1CC1C)C(=O)N1CCCC(N1)C(=O)OCC(C)(C)C2 was tested, and the IC50 (second compound 0.000949 µM) was under 3.16 nM, the IC50 (second compound 0.003 µM) was under 3.16 nM and the IC50 (second compound 0.00949 µM) was under 3.16 nM. It also gave an IC50 (second compound 0.03 µM) of under 3.16 nM, an IC50 (second compound 0.0949 µM) of under 3.16 nM and an IC50 (second compound 0.3 µM) of under 3.16 nM. For the same compound, the viability, T/C [1] was 44.4%, the viability, T/C [2] was 36.8% and the viability, T/C [3] was 16.1%. It also gave a viability, T/C [4] of 14.3%, a viability, T/C [5] of 7.06% and a viability, T/C [6] of 3.12%. The viability, T/C [7] was 20.1%, the viability, T/C [8] was 12.8% and the viability, T/C [9] was 8.83%. For the same compound, the viability, T/C [10] was 4.83%, the viability, T/C [11] was 3.13% and the viability, T/C [12] was 1.88%. The viability, T/C [13] was 12.8%, the viability, T/C [14] was 20.7% and the viability, T/C [15] was 3.97%. For the same compound, the viability, T/C [16] was 3.06%, the viability, T/C [17] was 1.18% and the viability, T/C [18] was 1.4%. For the same compound, the viability, T/C [19] was 3.31%, the viability, T/C [20] was 1.65% and the viability, T/C [21] was 2.04%. It also gave a viability, T/C [22] of 1.29%, a viability, T/C [23] of 1.25% and a viability, T/C [24] of 0.85%. For the same compound, the viability, T/C [25] was 2.17%, the viability, T/C [26] was 1.59% and the viability, T/C [27] was 1.36%. For the same compound, the viability, T/C [28] was 0.82%, the viability, T/C [29] was 0.8% and the viability, T/C [30] was 0.95%. For the same compound, the viability, T/C [31] was 2.23%, the viability, T/C [32] was 1.56% and the viability, T/C [33] was 1.42%. The viability, T/C [34] was 0.74%, the viability, T/C [35] was 0.89% and the viability, T/C [36] was 0.77%.
Work on `C=CC(=O)N1CCN(c2nc(OCC3CCCN3C)nc3c(F)c(-c4nc(N)cc(C)c4C(F)(F)F)c(Cl)cc23)C(C)C1` (stereo unspecified) + CCn1c(-c2cc(N3CCN(C)CC3)cnc2C(C)OC)c2c3cc(ccc31)-c1csc(n1)CC(NC(=O)C1CC1C)C(=O)N1CCCC(N1)C(=O)OCC(C)(C)C2 yielded an IC50 (second compound 0.000949 µM) of under 3.16 nM, an IC50 (second compound 0.003 µM) of under 3.16 nM and an IC50 (second compound 0.00949 µM) of under 3.16 nM. The IC50 (second compound 0.03 µM) was under 3.16 nM, the IC50 (second compound 0.0949 µM) was under 3.16 nM and the IC50 (second compound 0.3 µM) was under 3.16 nM. The viability, T/C [1] was 14%, the viability, T/C [2] was 11.3% and the viability, T/C [3] was 7.59%. The viability, T/C [4] was 8%, the viability, T/C [5] was 8.62% and the viability, T/C [6] was 8.31%. It also gave a viability, T/C [7] of 9.34%, a viability, T/C [8] of 6.02% and a viability, T/C [9] of 5.36%. It also gave a viability, T/C [10] of 5.95%, a viability, T/C [11] of 6.92% and a viability, T/C [12] of 5.35%. It also gave a viability, T/C [13] of 4.68%, a viability, T/C [14] of 4.68% and a viability, T/C [15] of 4.36%. It also gave a viability, T/C [16] of 4.25%, a viability, T/C [17] of 4.08% and a viability, T/C [18] of 3.96%. The viability, T/C [19] was 3.4%, the viability, T/C [20] was 3.36% and the viability, T/C [21] was 2.8%. It also gave a viability, T/C [22] of 2.79%, a viability, T/C [23] of 3.36% and a viability, T/C [24] of 3.36%. The viability, T/C [25] was 2.57%, the viability, T/C [26] was 2.3% and the viability, T/C [27] was 3.16%. For the same compound, the viability, T/C [28] was 2.37%, the viability, T/C [29] was 2.22% and the viability, T/C [30] was 3.4%. For the same compound, the viability, T/C [31] was 2.23%, the viability, T/C [32] was 2.68% and the viability, T/C [33] was 2.5%. It also gave a viability, T/C [34] of 2.49%, a viability, T/C [35] of 3.18% and a viability, T/C [36] of 2.66%.
Compound `CC(=O)OC12COC1CC(O)C1(C)C(=O)C(O)C3=C(C)C(OC(=O)C(O)C(NC(=O)OC(C)(C)C)c4ccccc4)CC(O)(C(OC(=O)c4ccccc4)C21)C3(C)C` (stereo unspecified) + C=CC(=O)N1CCN(c2nc(OCC3CCCN3C)nc3c(F)c(-c4nc(N)cc(C)c4C(F)(F)F)c(Cl)cc23)C(C)C1 has an IC50 (second compound 0.00316 µM) of under 31.6 nM, an IC50 (second compound 0.01 µM) of under 31.6 nM and an IC50 (second compound 0.0316 µM) of under 31.6 nM. It also gave an IC50 (second compound 0.1 µM) of under 31.6 nM, an IC50 (second compound 0.316 µM) of under 31.6 nM and an IC50 (second compound 1 µM) of under 31.6 nM. The viability, T/C (second compound 0.00316 µM, first compound 0.0316 µM) was 15.6%, the viability, T/C (second compound 0.00316 µM, first compound 0.1 µM) was 15.6% and the viability, T/C (second compound 0.00316 µM, first compound 0.316 µM) was 16.5%. For the same compound, the viability, T/C (second compound 0.00316 µM, first compound 1 µM) was 15.9%, the viability, T/C (second compound 0.00316 µM, first compound 3.16 µM) was 15.5% and the viability, T/C (second compound 0.00316 µM, first compound 10 µM) was 15.2%. It also gave a viability, T/C (second compound 0.01 µM, first compound 0.0316 µM) of 13.9%, a viability, T/C (second compound 0.01 µM, first compound 0.1 µM) of 14.1% and a viability, T/C (second compound 0.01 µM, first compound 0.316 µM) of 12.5%. The viability, T/C (second compound 0.01 µM, first compound 1 µM) was 13.2%, the viability, T/C (second compound 0.01 µM, first compound 3.16 µM) was 10.8% and the viability, T/C (second compound 0.01 µM, first compound 10 µM) was 9.16%. It also gave a viability, T/C (second compound 0.0316 µM, first compound 0.0316 µM) of 11.1%, a viability, T/C (second compound 0.0316 µM, first compound 0.1 µM) of 10.8% and a viability, T/C (second compound 0.0316 µM, first compound 0.316 µM) of 9.94%. It also gave a viability, T/C (second compound 0.0316 µM, first compound 1 µM) of 9.79%, a viability, T/C (second compound 0.0316 µM, first compound 3.16 µM) of 10.3% and a viability, T/C (second compound 0.0316 µM, first compound 10 µM) of 8.13%. For the same compound, the viability, T/C (second compound 0.1 µM, first compound 0.0316 µM) was 9.79%, the viability, T/C (second compound 0.1 µM, first compound 0.1 µM) was 11.2% and the viability, T/C (second compound 0.1 µM, first compound 0.316 µM) was 9.84%. For the same compound, the viability, T/C (second compound 0.1 µM, first compound 1 µM) was 9.57%, the viability, T/C (second compound 0.1 µM, first compound 3.16 µM) was 11.5% and the viability, T/C (second compound 0.1 µM, first compound 10 µM) was 9.04%. For the same compound, the viability, T/C (second compound 0.316 µM, first compound 0.0316 µM) was 7.89%, the viability, T/C (second compound 0.316 µM, first compound 0.1 µM) was 9.45% and the viability, T/C (second compound 0.316 µM, first compound 0.316 µM) was 11.5%. For the same compound, the viability, T/C (second compound 0.316 µM, first compound 1 µM) was 9.36%, the viability, T/C (second compound 0.316 µM, first compound 3.16 µM) was 10.3% and the viability, T/C (second compound 0.316 µM, first compound 10 µM) was 8.4%. The viability, T/C (second compound 1 µM, first compound 0.0316 µM) was 8.13%, the viability, T/C (second compound 1 µM, first compound 0.1 µM) was 10.6% and the viability, T/C (second compound 1 µM, first compound 0.316 µM) was 12.8%. It also gave a viability, T/C (second compound 1 µM, first compound 1 µM) of 9.39%, a viability, T/C (second compound 1 µM, first compound 3.16 µM) of 11.2% and a viability, T/C (second compound 1 µM, first compound 10 µM) of 10.5%.
